SMILES strings stand for the structures. Some results are limits rather than exact numbers.

Results on eleven compounds are retold here after PMC11363738 (Journal of Enzyme Inhibition and Medicinal Chemistry, 2024).

Series [1] has as its system SARS-CoV-2 Omicron virus BA.5. Kind of series: Antiviral activity in Vero E6 cells, preventive model (viral RNA by qRT-PCR). The conditions noted are these: Severe acute respiratory syndrome coronavirus 2, Vero C1008; read-out: EC50 (concentration for 50% reduction in viral infectivity), preventive model. The format is cell-based. In general terms: Real-time PCR tracks product formation cycle by cycle.

The nature of series [2]: Cytotoxicity against Vero E6 cells, CCK-8 assay (preventive model). The note with it: African green monkey. In general terms: Tetrazolium dyes change colour on reduction, which living cells bring about.
Series [3] is described as follows: Normal cytotoxicity test in Vero E6 cells, therapeutic model (Celltiter-Glo, CC plate). The conditions noted are these: African green monkey, Vero E6 cells (uninfected). (In general: In ATP-based viability assays light output follows the ATP content of the culture.)
The subject of series [4] is SARS-CoV-2 Omicron virus BA.5. Kind of series: microbe, parasite or virus in culture. The conditions noted are these: for EC50: Severe acute respiratory syndrome coronavirus 2, Vero C1008, 96 h, ND = not detectable, inactive at 10 μM, mean ± SD, read-out: EC50, therapeutic model. In kind it is cell-based.
In series [5] the target is T1, SARS-CoV-2 3CL^pro (Severe acute respiratory syndrome coronavirus 2, UniProt P0DTD1).
T1 construct: purchased Beyotime, China P0315M
Kind of series: SARS-CoV-2 3CLpro FRET activity assay (Beyotime inhibitor screening kit). In kind it is biochemical. The conditions noted are these: for IC50: FRET assay, averages of three independent experiments; for inhibition at 1 µM: n = 3, read-out: rate of inhibiting SARS-CoV-2 3CL^pro.

A short description of series [6]: in vitro. The conditions noted are these: African green monkey.
The nature of series [7]: in vitro. The note with it: African green monkey. This is another data set of the same source.
In series [8] the test system is rats and mice. Set-up: method as in earlier work. The note with it: cited from earlier work.
Series [9] deals with rats and mice. Set-up: method as in PMID 12776572. The conditions noted are these: cited from earlier work.
Series [10] concerns SARS-CoV-2. Set-up: method as in PMID 34131140. The note with it: read-out: intracellular antiviral activity EC50; cited from earlier work.
In series [11] the test system is rats and mice. The note with it: cited from earlier work.

For `O=c1c(O)c(-c2cc(O)c(O)c(O)c2)oc2cc(O)cc(O)c12` [Compound 2, Myricetin], in series [1], the EC50 was 12.2 ± 0.23 µM. The CC50 at 24 h in [2] was over 100 µM. Also, in series [3], the CC50 at 4 days is over 100 µM. Moreover, in series [4], the “inhibitory activity against Omicron virus, therapeutic model” value is given as “did not have significant inhibitory activity”.
A word on the IC50: it is the concentration at which inhibition is half-maximal. On to `COC(=O)CCCOc1cc(O)c2c(=O)c(O)c(-c3cc(O)c(O)c(O)c3)oc2c1` [Compound 4, Methyl4-((3,5-dihydroxy-4-oxo-2–(3,4,5-trihydroxyphenyl)-4H-chromen-7-yl)oxy)butano-ate], for which the half-inhibitory concentration (IC50) in series [5] was 1.26 ± 0.09 µM.
For `CCOC(=O)CCCCCCCOc1cc(O)c2c(=O)c(O)c(-c3cc(O)c(O)c(O)c3)oc2c1` [Compound 10, Ethyl 8-((3,5-dihydroxy-4-oxo-2–(3,4,5-trihydroxyphenyl)-4H-chromen-7-yl)oxy)octan-oate], the EC50 in [1] was determined as 46.1 ± 4.67 µM; in [4], 11.5 ± 3.68 µM. In series [5], this compound displayed an IC50 of 2.36 ± 0.13 µM.
`COC(=O)COc1cc(O)c2c(=O)c(O)c(-c3cc(O)c(O)c(O)c3)oc2c1` [Compound 3, Methyl 2-((3,5-dihydroxy-4-oxo-2–(3,4,5-trihydroxyphenyl)-4H-chromen-7yl)oxy)acetate] registered a CC50 in series [6] of over 100 µM. For the same compound, the EC50 in [1] was found to be 15.8 ± 0.92 µM. Also, in series [5], the IC50 is 0.72 ± 0.04 µM and the inhibition at 1 µM is over 50%. This compound had a CC50 in series [7] of over 100 µM.
For the compound `CCC(CC)COC(=O)[C@H](C)N[P@](=O)(OC[C@H]1O[C@@](C#N)(c2ccc3c(N)ncnn23)[C@H](O)[C@@H]1O)Oc1ccccc1` [Remdesivir], the figures for the EC50 in series [1] and in series [4] were 0.64 ± 0.12 µM and 0.91 ± 0.39 µM, respectively. Further, the CC50 at 24 h in series [2] is over 100 µM. Moreover, in [3], the CC50 at 4 days came out at 49.7 ± 0.13 µM.
On to `COC(=O)CCCCCOc1cc(O)c2c(=O)c(O)c(-c3cc(O)c(O)c(O)c3)oc2c1` [Compound 5, Methyl 6-((3,5-dihydroxy-4-oxo-2–(3,4,5-trihydroxyphenyl)-4H-chromen-7-yl)oxy) hexano-ate], for which the CC50 in series [6] and in [7] was over 100 µM in each case. The EC50 in [1] was determined as 37.6 ± 2.05 µM. In addition, the IC50 in series [5] stood at 1.69 ± 0.16 µM.
`CCOC(=O)CCCOc1cc(O)c2c(=O)c(O)c(-c3cc(O)c(O)c(O)c3)oc2c1` [Compound 7, Ethyl 4-((3,5-dihydroxy-4-oxo-2–(3,4,5-trihydroxyphenyl)-4H-chromen-7-yl)oxy)butano-ate] returned a 50% inhibitory concentration (IC50) in [5] of 1.53 ± 0.14 µM.
The same measure, in the same setting: the value for `CCOC(=O)CCCCCOc1cc(O)c2c(=O)c(O)c(-c3cc(O)c(O)c(O)c3)oc2c1` [Compound 8, Ethyl 6-((3,5-dihydroxy-4-oxo-2–(3,4,5-trihydroxyphenyl)-4H-chromen-7-yl)oxy)hexane-ate] was 1.73 ± 0.11 µM.
Consider `CCOC(=O)CCCCCCOc1cc(O)c2c(=O)c(O)c(-c3cc(O)c(O)c(O)c3)oc2c1` [Compound 9, Ethyl 7-((3,5-dihydroxy-4-oxo-2–(3,4,5-trihydroxyphenyl)-4H-chromen-7-yl)oxy)heptano-ate], for which half-maximal inhibition in series [5] (IC50) was put at 1.68 ± 0.19 µM.
Take `O=C1c2c(O)cc(O)cc2O[C@H](c2cc(O)c(O)c(O)c2)[C@H]1O` [Compound 1, Dihydromyricetin]: the “result in genotoxicity tests” value in series [8] was “negative”. Also, the EC50 was 21.2 ± 0.62 µM in series [1] and 13.6 µM in [10]. For the same compound, the “result in long-term toxicity tests” value in series [9] is “negative”. In series [2], this compound gave a CC50 at 24 h of over 100 µM. In series [3], the CC50 at 4 days is over 100 µM. The “inhibitory activity against Omicron virus, therapeutic model” value in series [4] is reported as “did not have significant inhibitory activity”. Besides, in series [11], the “result in acute oral toxicity tests” value was “negative”.
Consider `CCOC(=O)COc1cc(O)c2c(=O)c(O)c(-c3cc(O)c(O)c(O)c3)oc2c1` [Compound 6, Ethyl 2-((3,5-dihydroxy-4-oxo-2–(3,4,5-trihydroxyphenyl)-4H-chromen-7-yl)oxy)acetate], for which, in series [5], half-maximal inhibition (IC50) required 0.95 ± 0.12 µM and the inhibition at 1 µM is over 50%.
